Data set [1] deals with human umbilical vein endothelial cells (HUVEC). Briefly: Cytotoxicity, MTT test, HUVEC. The class given is cell-based. The note with it: 24 h incubation, read-out: IC50 viability (MTT-reducing ability) HUVEC. The procedure: (§1) All the cells were cultured in a humidified atmosphere with 5% (v/v) CO2 at 37 °C and subcultured before conﬂuence. Human Umbilical Vein Endothelial Cells (HUVEC) were isolated from umbilical cords of healthy non-smoker women (18–35 years) as described previously, cultivated in gelatin-coated flasks in EGM and used in passages 2–6. Primary Normal human Adult epidermal Keratinocytes (NAK) were isolated from normal skin obtained from excessive tissue removed during abdominoplasty or mammoplasty of healthy adult patients as described in [36, 50], cultivated in EpiLife medium with the addition of HKGS. Mouse fibroblasts (BALB/c 3T3 cells) were purchased from the European Collection of Cell Cultures (ECACC, Salisbury, UK) and were grown in DMEM supplemented with heat-inactivated FCS (5%, v/v) and newborn FCS, streptomycin […] and glutamine (4 mM). Hepatocyte carcinoma HepG2 cells (No. 85011430, ECACC) were cultured at 37 °C in DMEM supplemented with 2 mM L-glutamine, 1% non-essential amino acids, 100 U/mL penicillin, […] and 10% fetal bovine serum (Invitrogen, Carlsbad, CA, USA).
(§2) The cells were plated into 96-well cell culture plates and grown to near confluence. The tested compounds were placed in the respective fresh medium in serial dilutions (100 µL/well) and incubated with the cells for 24 h. After incubation, the medium was removed, the cells were washed with PBS, fresh medium containing 1 mg/mL of MTT was added and the plates were incubated for a further 3 h (37 °C). The resulting formazan was dissolved in 50 µL of 1% NH3 in DMSO, absorbance was read at 540 nm and IC50 values were obtained graphically from the dependence of cell viability on the concentration of the tested compound.
In general terms: Formazan colour is commonly taken as a measure of viable cells.

The subject of the next data set is rat liver microsomes. Briefly: Inhibition of microsomal lipid peroxidation induced by tert-butyl hydroperoxide (TBARS). It is filed as biochemical. The conditions noted are these: for IC50: rat liver microsomes, 1 mM tert-butyl hydroperoxide, TBARS. The procedure:
Microsomes were prepared from rat liver homogenate as described previously and resuspended in 50 mM Tris-HCl buffer with 100 mM KCl and 0.1 mM EDTA (pH 7.4). The protein concentration in the stock microsomal suspension was determined using the Bradford method to be typically ca 30 mg protein/mL. This stock suspension was stored at −80 °C and diluted to 0.625 mg protein/mL using PBS before use. 0.4 mL of the diluted microsomal suspension was then mixed with the compounds tested (final concentration 10–200 µM in 0.01 mL DMSO) and incubated for 10 min at 37 °C. tert-Butyl hydroperoxide (0.09 mL in PBS; final concentration 1 mM) was then added and the mixture was incubated at 37 °C for 30 min. The products of lipid peroxidation were determined as thiobarbituric acid reactive substances (TBARS): 0.7 mL of […] were added, the mixture was heated (90 °C; 30 min), cooled, centrifuged (10 min; 10,000 rpm; 4 °C) and the absorbance of the supernatant at 535 nm measured. The activity was calculated as the concentration of the tested compound that inhibited the color reaction with thiobarbiturate (without the tested compound) by 50% (IC50).

The subject of data set [2] is mouse fibroblasts (BALB/c 3T3). As to the kind of experiment: Cytotoxicity, MTT test, BALB/c 3T3. The note with it: BALB/c3T3, 24 h incubation, read-out: IC50 viability (MTT-reducing ability) BALB/c 3T3. The class given is cell-based. The procedure: as §1, §2
Data set [3] deals with normal human adult epidermal keratinocytes (NAK). As to the kind of experiment: Cytotoxicity, MTT test, NAK. The class given is cell-based. The note with it: Keratinocyte, 24 h incubation, read-out: IC50 viability (MTT-reducing ability) NAK. The procedure: as §1, §2
A short description of data set [4]: Cytotoxicity, MTT test, range over all cells other than NAK. It is filed as cell-based. The conditions noted are these: human (HUVEC, HepG2) and mouse (BALB/c 3T3), all cells used other than NAK (HUVEC, BALB/c 3T3, HepG2), read-out: Cytotoxicity IC50, range over cell types. The procedure: as §1, §2
Data set [5] can be described thus: Square wave voltammetry (in situ / ex situ) at pyrolytic graphite electrode. It is filed as physicochemical. The note with it: for Oxidation potential Ep1 / Oxidation potential Ep2: SWV, vs. Ag/AgCl/3 M KCl, pH 7.4, n = 3; for Oxidation potential Ep1: ascribed to oxidation of C-20 OH; for Oxidation potential Ep2: oxidation of resorcinol moiety (ring A). The procedure: The monomeric flavonolignans and their dimers were analyzed using in situ voltammetry with the working electrode (PGE: pyrolytic graphite electrode) dipped in the supporting electrolyte containing the analytes and/or ex situ voltammetric analysis (adsorptive transfer, AdT technique). For this purpose, the PGE was first dipped into a 5 µL aliquot of the studied sample. After an accumulation period (30 s), the electrode was washed with deionized water and placed in an electrochemical cell containing pure supporting electrolyte. Square-wave voltammetry (SWV) and cyclic voltammetry (CV) were performed at room temperature with a µAutolab III analyzer (EcoChemie, Utrecht, The Netherlands) in a three-electrode setup (Ag/AgCl 3M KCl electrode as a reference and a platinum wire as the auxiliary electrode). SWV parameters: frequency: 200 Hz, from 0 V to +1.5 V, concentration of tested compounds (50 µM), supporting electrolyte: Britton-Robinson buffer, pH 7.4. The flavonolignans analyzed were dissolved in methanol as a stock solution of 1 mg mL^−1 (stored in a fridge in the dark), and diluted with the supporting electrolyte and/or 0.2 M acetate buffer (pH 5) for in situ and/or ex situ voltammetry. Ex situ a.c. voltammetry (out-of-phase) was carried out with a hanging mercury drop electrode (HMDE) according to the previously published paper. In this case, the flavonolignans (50 µM) were adsorbed from 0.2 M acetate buffer (pH 5) for 30 s. For current responses and potentials (Ep), the standard deviations (S.D.) were less than ±3.55% and ±3 mV for all experiments, respectively.

Data set [6] is described as follows: DPPH radical scavenging assay. It is filed as biochemical. The note with it: for IC50: 20 µM DPPH, 30 min; for DPPH [% of inhibition]: 33 µM test compound, n = 4, absorbance at 517 nm after 30 min. The procedure:
Antiradical activity was evaluated spectrophotometrically as the ability of the tested substances to reduce the 1,1-diphenyl-2-picrylhydrazyl (DPPH) radical as described previously with minor modifications. Briefly, a solution of the tested substance (10 µL, final concentration 0–540 µM) were mixed with a freshly prepared methanolic DPPH solution (290 µL, final concentration 20 µM) in a microtiter plate well. After 30 min, absorbance at 517 nm was measured, percentages of inhibition were calculated using the negative control and for selected compounds the IC50 values were obtained from the inhibition curves.
In general terms: DPPH is a stable violet radical that fades when it is reduced.

A further data set relates to HepG2 cells. As to the kind of experiment: Cytotoxicity, MTT test, HepG2. It is filed as cell-based. The note with it: Homo sapiens, 24 h incubation, read-out: IC50 viability (MTT-reducing ability) HepG2. The procedure:
as §1, §2

The record followed here is article PMC6271273, “Chemo-Enzymatic Synthesis of Silybin and 2,3-Dehydrosilybin Dimers” (Molecules, 2014).

Several values for one entry are separate records, joined by “and”; a condition that tells them apart may be missing. Identical values can stand only once. Marks after values point to notes of the source that are not given here.

On to `COc1cc(C2Oc3cc(-c4oc5cc(O)cc(O)c5c(=O)c4O)ccc3OC2CO)ccc1O` (stereo not drawn) [Compound 6, 2,3-Dehydrosilybin], for which the IC50 in data set [1] is 20.9 ± 4.6 µM; with rat liver microsomes it was 14.5 ± 0.73 µM; in data set [2], 11.9 ± 3 µM; in data set [3] it was > 200 µM; in data set [6], 6.43 ± 0.3 µM; in the data set on HepG2 cells, 58.4 ± 9 µM. Further, the IC50 at 24 h in data set [4] is 12 to 59 µM. In addition, the “Oxidation potential Ep1” value in data set [5] was found to be 0.54 V. Also, in data set [5], the “Oxidation potential Ep2” value was determined as 0.92 V. In data set [6] (33 µM), the “DPPH [% of inhibition]” value was 83% and 82.9 ± 0.2 ^b %.
With `COc1cc(C2Oc3cc([C@H]4Oc5cc(OCc6cccc(COc7cc(O)c8c(c7)O[C@H](c7ccc9c(c7)OC(c7ccc(O)c(OC)c7)C(CO)O9)[C@@H](O)C8=O)c6)cc(O)c5C(=O)[C@@H]4O)ccc3OC2CO)ccc1O` (stereo partly drawn) [Compound 11, (2R,2'R,3R,3'R)-7,7'-((1,3-Phenylenebis(methylene))bis(oxy))bis(3,5-dihydroxy-2-(3-(4-hydroxy-3-methoxyphenyl)-2-(hydroxymethyl)-2,3-dihydrobenzo[b][1,4]dioxin-6-yl)chroman-4-one)], in data set [5], the “Oxidation potential Ep1” value is 0.52 V and the “Oxidation potential Ep2” value is given as 0.87 V. In data set [6], the “DPPH [% of inhibition]” value is given as 10.7 ± 3.1 ^a %.
The matching figures for `COc1cc([C@H]2Oc3cc([C@H]4Oc5cc(OCc6ccc(COc7cc(O)c8c(c7)O[C@H](c7ccc9c(c7)O[C@H](c7ccc(O)c(OC)c7)[C@@H](CO)O9)[C@@H](O)C8=O)cc6)cc(O)c5C(=O)[C@@H]4O)ccc3O[C@@H]2CO)ccc1O` [Compound 8, (2R,2'R,3R,3'R)-7,7'-((1,4-Phenylenebis(methylene))bis(oxy))bis(3,5-dihydroxy-2-((2R,3R)-3-(4-hydroxy-3-methoxyphenyl)-2-(hydroxymethyl)-2,3-dihydrobenzo[b][1,4]dioxin-6-yl)chroman-4-one)]: 0.56 V, 0.81 V and 8.5 ± 3.7 ^a %.
The matching figures for `COc1cc(C2Oc3cc([C@H]4Oc5cc(OCc6ccc(COc7cc(O)c8c(c7)O[C@H](c7ccc9c(c7)OC(c7ccc(O)c(OC)c7)C(CO)O9)[C@@H](O)C8=O)cc6)cc(O)c5C(=O)[C@@H]4O)ccc3OC2CO)ccc1O` (stereo partly drawn) [Compound 10, (2R,2'R,3R,3'R)-7,7'-((1,4-Phenylenebis(methylene))bis(oxy))bis(3,5-dihydroxy-2-(3-(4-hydroxy-3-methoxyphenyl)-2-(hydroxymethyl)-2,3-dihydrobenzo[b][1,4]dioxin-6-yl)chroman-4-one)]: 0.56 V, 0.80 V and 8.1 ± 3.4 ^a %.
On to `COc1cc([C@H]2Oc3cc([C@H]4Oc5cc(O)cc(O)c5C(=O)[C@@H]4O)ccc3O[C@@H]2COC(=O)CCCCCCCCCCC(=O)OC[C@H]2Oc3ccc([C@H]4Oc5cc(O)cc(O)c5C(=O)[C@@H]4O)cc3O[C@@H]2c2ccc(O)c(OC)c2)ccc1O` [Compound 3, bis(((2R,3R)-3-(4-Hydroxy-3-methoxyphenyl)-6-((2R,3R)-3,5,7-trihydroxy-4-oxochroman-2-yl)-2,3-dihydrobenzo[b][1,4]dioxin-2-yl)methyl) dodecanedioate], for which the IC50 in data set [1] is 7.6 ± 1.9 µM; in the data set with rat liver microsomes, 34 ± 4.3 µM; in data set [2], 23.5 ± 5.6 µM; in data set [3] it was > 200 µM; in data set [6], 137 ± 7.5 µM; in the data set with HepG2 cells it was 51.8 ± 5.9 µM. For the same compound, the “Activity relative to the parent molecule 1a, microsomal lipid peroxidation” value in the data set on rat liver microsomes (stated jointly for DPPH scavenging and microsomal lipid peroxidation tests) is “approximately 1.6 times”. The IC50 at 24 h in data set [4] was 8 to 44 µM. Besides, the “Oxidation potential Ep1” value in data set [5] is 0.56 V. Also, the “Oxidation potential Ep2” value in data set [5] worked out at 0.83 V. For the same compound, the “Adsorption onto the electrode” value in data set [5] (ex situ (adsorptive transfer) SWV, open circuit potential) is “strictly limited and practically impossible”. Also, the “DPPH [% of inhibition]” value in data set [6] is listed as 7.1 ± 2.8 ^a %.
Regarding `COc1cc([C@@H]2Oc3cc([C@H]4Oc5cc(OCc6ccc(COc7cc(O)c8c(c7)O[C@H](c7ccc9c(c7)O[C@@H](c7ccc(O)c(OC)c7)[C@H](CO)O9)[C@@H](O)C8=O)cc6)cc(O)c5C(=O)[C@@H]4O)ccc3O[C@H]2CO)ccc1O` [Compound 9, (2R,2'R,3R,3'R)-7,7'-((1,4-Phenylenebis(methylene))bis(oxy))bis(3,5-dihydroxy-2-((2S,3S)-3-(4-hydroxy-3-methoxyphenyl)-2-(hydroxymethyl)-2,3-dihydrobenzo[b][1,4]dioxin-6-yl)chroman-4-one)], in data set [5], the “Oxidation potential Ep1” value came to 0.57 V and the “Oxidation potential Ep2” value is reported as 0.83 V. Also, in data set [6], the “DPPH [% of inhibition]” value is on record as 8.9 ± 4.0 ^a %.
In the case of `COc1cc([C@H]2Oc3cc([C@H]4Oc5cc(O)cc(O)c5C(=O)[C@@H]4O)ccc3O[C@@H]2CO)ccc1O` [Compound 1a, silybin A], the IC50 was 57.8 ± 3.6 µM in data set [1]; 53.7 ± 6.1 µM in the data set on rat liver microsomes; 131 ± 8 µM in data set [2]; > 200 µM in data set [3]; 225 ± 9.4 µM in data set [6]; 165 ± 8.1 µM in the data set with HepG2 cells. Further, in data set [4], the IC50 at 24 h lay in the range of 60 to 166 µM. In data set [6], the “DPPH [% of inhibition]” value is given as 6.6 ± 1.7 ^a %.
